The values below come from patent publication US8653138B2, “Calcium salts of compounds as anti-inflammatory, immunomodulatory and anti-proliferatory agents” (4SC MG, priority 2010, dated 2014).

A value given as a limit tells only on which side of the number the result lay.

The target in the assay is T1, recombinant human DHODH (Homo sapiens, UniProt Q02127).
T1 construct: provided by Prof; M. Löffler, Marburg, Germany (gift, not a commercial vendor)
T1 sequence (Q02127 whole entry): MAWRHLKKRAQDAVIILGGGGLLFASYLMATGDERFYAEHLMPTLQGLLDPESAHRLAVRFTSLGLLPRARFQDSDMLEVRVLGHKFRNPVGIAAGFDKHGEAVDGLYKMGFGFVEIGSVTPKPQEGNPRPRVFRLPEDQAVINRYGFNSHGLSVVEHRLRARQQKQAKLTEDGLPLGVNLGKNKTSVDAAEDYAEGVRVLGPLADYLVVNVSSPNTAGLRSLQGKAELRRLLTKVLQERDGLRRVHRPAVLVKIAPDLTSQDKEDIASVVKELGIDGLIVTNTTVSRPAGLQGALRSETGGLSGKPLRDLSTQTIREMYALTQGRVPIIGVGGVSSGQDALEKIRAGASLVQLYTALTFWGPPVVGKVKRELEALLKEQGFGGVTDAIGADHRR
The experiment in a line: Inhibition assay of DHODH activity, human enzyme. The following applies: class symbol (head prints μM, key in nM). The assay is classed as biochemical. The procedure: The standard assay mixture contained 50 μM decyclo ubichinone, 100 μM dihydroorotate, 60 μM 2,6-dichloroindophenol, as well as 20 mU DHODH. The volume activity of the recombinant enzyme used was 30 U/ml. Measurements were conducted in 50 mM TrisHCl (150 mM KCl, 0.1% Triton X-100, pH 8.0) at 30° C. in a final volume of 1 ml. The components were mixed, and the reaction was started by adding dihydroorotate. The course of reaction was followed by spectrophotometrically measuring the decrease in absorption at 600 nm for 2 min.
Inhibitory studies were conducted in a standard assay with additional variable amounts of inhibitor.
These investigations were carried out with recombinant human as well as with recombinant murine DHODH provided by Prof. M. Löffler, Marburg, Germany [M. Löffler, Chem. Biol. Interact.
On to `O=C(O)C1=C(C(=O)Nc2ccc(OCc3ccccc3)c(Cl)c2)CCC1` [Compound 72], for which the IC50 is less than 0.8 µM.

For `CCOc1cccc(-c2ccc(NC(=O)C3=C(C(=O)O)CCC3)c(F)c2)c1` [Compound 46, 2-((3′-ethoxy-3-fluoro-[1,1′-biphenyl]-4-yl)carbamoyl)cyclopent-1-enecarboxylic acid], the IC50 was less than 0.8 µM.

For `O=C(O)C1=C(C(=O)Nc2ccc(-c3cc4ccccc4s3)cc2F)CCC1` [Compound 45, 2-((4-(benzo[b]thiophen-2-yl)-2-fluorophenyl)carbamoyl)cyclopent-1-enecarboxylic acid], the IC50 is less than 0.8 µM.

Take `O=C(O)C1=C(C(=O)Nc2ccc(Oc3ccccc3)cc2)CCC1` [Compound 50, 2-((4-phenoxyphenyl)carbamoyl)cyclopent-1-enecarboxylic acid]: the IC50 was less than 0.8 µM.

For the compound `O=C(O)C1=C(C(=O)Nc2ccc(-c3cccc(OC(F)(F)F)c3)cc2)CCC1` [Compound 43, 2-((3′-(trifluoromethoxy)-[1,1′-biphenyl]-4-yl)carbamoyl)cyclopent-1-enecarboxylic acid], the IC50 was less than 0.8 µM.

Turning to `COc1cc(-c2ccccc2Cl)ccc1NC(=O)C1=C(C(=O)O)CCC1` [Compound 34, 2-((2′-chloro-3-methoxy-[1,1′-biphenyl]-4-yl)carbamoyl)cyclopent-1-enecarboxylic acid], the IC50 was less than 0.8 µM.

As to `COc1ccccc1-c1ccc(NC(=O)C2=C(C(=O)O)CCC2)c(Cl)c1` [Compound 53, 2-((3-chloro-2′-methoxy-[1,1′-biphenyl]-4-yl)carbamoyl)cyclopent-1-enecarboxylic acid], the IC50 is less than 0.8 µM.

Consider `CCOc1cccc(-c2ccc(NC(=O)C3=C(C(=O)O)CCC3)c(OC)c2)c1` [Compound 38, 2-((3′-ethoxy-3-methoxy-[1,1′-biphenyl]-4-yl)carbamoyl)cyclopent-1-enecarboxylic acid], for which the IC50 is less than 0.8 µM.

As for `COc1ccc(-c2cc(F)c(NC(=O)C3=C(C(=O)O)CCC3)c(F)c2)c(OC)c1` [Compound 67, 2-((3,5-difluoro-2′,4′-dimethoxy-[1,1′-biphenyl]-4-yl)carbamoyl)cyclopent-1-enecarboxylic acid], the IC50 is less than 0.8 µM.

With `COc1ccccc1-c1ccc(NC(=O)C2=C(C(=O)O)CCC2)cc1Cl` [Compound 54, 2-((2-chloro-2′-methoxy-[1,1′-biphenyl]-4-yl)carbamoyl)cyclopent-1-enecarboxylic acid], the half-maximal inhibitory concentration (IC50) was less than 0.8 µM.

Regarding `O=C(O)C1=C(C(=O)Nc2ccc(-c3cccc(F)c3)cc2F)CCC1` [Compound 27, 2-((3,3′-difluoro-[1,1′-biphenyl]-4-yl)carbamoyl)cyclopent-1-enecarboxylic acid], the IC50 is less than 0.8 µM.

In the case of `COc1ccc(-c2ccc(NC(=O)C3=C(C(=O)O)CCC3)cc2Cl)cc1` [Compound 19, 2-((2-chloro-4′-methoxy-[1,1′-biphenyl]-4-yl)carbamoyl)cyclopent-1-enecarboxylic acid], the IC50 is less than 0.8 µM.

Consider `COc1ccc(-c2ccc(NC(=O)C3=C(C(=O)O)CCC3)c(OC)c2)c(OC)c1` [Compound 37, 2-((2′,3,4′-trimethoxy-[1,1′-biphenyl]-4-yl)carbamoyl)cyclopent-1-enecarboxylic acid], for which the IC50 was less than 0.8 µM.

For the compound `COc1ccccc1-c1ccc(NC(=O)C2=C(C(=O)O)CCC2)cc1` [Compound 15, 2-((2′-methoxy-[1,1′-biphenyl]-4-yl)carbamoyl)cyclopent-1-enecarboxylic acid], the IC50 is less than 0.8 µM.

For the compound `COc1ccccc1-c1ccc(NC(=O)C2=C(C(=O)O)CCC2)c(C)c1` [Compound 57, 2-((2′-methoxy-3-methyl-[1,1′-biphenyl]-4-yl)carbamoyl)cyclopent-1-enecarboxylic acid], the IC50 was less than 0.8 µM.

Turning to `COc1ccc(-c2ccc(NC(=O)C3=C(C(=O)O)CCC3)cc2Cl)cn1` [Compound 22, 2-((3-chloro-4-(6-methoxypyridin-3-yl)phenyl)carbamoyl)cyclopent-1-enecarboxylic acid], the IC50 was less than 0.8 µM.

`O=C(O)C1=C(C(=O)Nc2ccc(OCc3c(F)cccc3F)cc2)CCC1` [Compound 16, 2-((4-((2,6-difluorobenzyl)oxy)phenyl)carbamoyl)cyclopent-1-enecarboxylic acid]: the IC50 was less than 0.8 µM.

On to `O=C(O)C1=C(C(=O)Nc2ccc(-c3cc4ccccc4s3)cc2)CCC1` [Compound 44, 2-((4-(benzo[b]thiophen-2-yl)phenyl)carbamoyl)cyclopent-1-enecarboxylic acid], for which the half-maximal inhibitory concentration (IC50) was less than 0.8 µM.

Regarding `O=C(O)C1=C(C(=O)Nc2ccc(-c3ccccc3Cl)cc2)CSC1` [Compound 41, 4-((2′-chloro-[1,1′-biphenyl]-4-yl)carbamoyl)-2,5-dihydrothiophene-3-carboxylic acid], the IC50 was less than 0.8 µM.

As for `COc1ccccc1-c1cc(Cl)c(NC(=O)C2=C(C(=O)O)CCC2)c(Cl)c1` [Compound 58, 2-((3,5-dichloro-2′-methoxy-[1,1′-biphenyl]-4-yl)carbamoyl)cyclopent-1-enecarboxylic acid], the IC50 was less than 0.8 µM.

Consider `Cc1cc(-c2cc(F)c(NC(=O)C3=C(C(=O)O)CCC3)c(F)c2)ccc1F` [Compound 30, 2-((3,4′,5-trifluoro-3′-methyl-[1,1′-biphenyl]-4-yl)carbamoyl)cyclopent-1-enecarboxylic acid], for which the IC50 was less than 0.8 µM.

In the case of `COc1ccc(-c2ccc(NC(=O)C3=C(C(=O)O)CCC3)cc2C)cc1` [Compound 23, 2-((4′-methoxy-2-methyl-[1,1′-biphenyl]-4-yl)carbamoyl)cyclopent-1-enecarboxylic acid], the IC50 was less than 0.8 µM.

As to `O=C(O)C1=C(C(=O)Nc2ccc(-c3ccccc3Cl)cc2)CCC1` [Compound 14, 2-((2′-chloro-[1,1′-biphenyl]-4-yl)carbamoyl)cyclopent-1-enecarboxylic acid], the IC50 was less than 0.8 µM.

For `CCOc1ccccc1-c1cc(F)c(NC(=O)C2=C(C(=O)O)CCC2)c(F)c1` [Compound 62, 2-((2′-ethoxy-3,5-difluoro-[1,1′-biphenyl]-4-yl)carbamoyl)cyclopent-1-enecarboxylic acid], the IC50 is less than 0.8 µM.

As for `O=C(O)C1=C(C(=O)Nc2cc(Br)c(OCc3cc(F)ccc3F)c(Br)c2)CCC1` [Compound 24], the half-maximal inhibitory concentration (IC50) is less than 0.8 µM.

On to `COc1cc(-c2ccccc2)ccc1NC(=O)C1=C(C(=O)O)CCC1` [Compound 33, 2-((3-methoxy-[1,1′-biphenyl]-4-yl)carbamoyl)cyclopent-1-enecarboxylic acid], for which the IC50 was less than 0.8 µM.

Consider `CCOc1ccccc1-c1ccc(NC(=O)C2=C(C(=O)O)CCC2)c(F)c1` [Compound 17, 2-((2′-ethoxy-3-fluoro-[1,1′-biphenyl]-4-yl)carbamoyl)cyclopent-1-enecarboxylic acid], for which the IC50 was less than 0.8 µM.

On to `O=C(O)C1=C(C(=O)Nc2c(F)cc(-c3ccccc3F)cc2F)CCC1` [Compound 66, 2-((2′,3,5-trifluoro-[1,1′-biphenyl]-4-yl)carbamoyl)cyclopent-1-enecarboxylic acid], for which the IC50 was less than 0.8 µM.

Regarding `COc1ccccc1-c1c(F)c(F)c(NC(=O)C2=C(C(=O)O)CCC2)c(F)c1F` [Compound 56, 2-((2,3,5,6-tetrafluoro-2′-methoxy-[1,1′-biphenyl]-4-yl)carbamoyl)cyclopent-1-enecarboxylic acid], the IC50 was less than 0.8 µM.

With `O=C(O)C1=C(C(=O)Nc2ccc(-c3ccccc3F)cc2)CCC1` [Compound 13, 2-((2′-fluoro-[1,1′-biphenyl]-4-yl)carbamoyl)cyclopent-1-enecarboxylic acid], the IC50 is less than 0.8 µM.

As to `COc1cc(-c2cccc(OC(F)(F)F)c2)ccc1NC(=O)C1=C(C(=O)O)CCC1` [Compound 35, 2-((3-methoxy-3′-(trifluoromethoxy)-[1,1′-biphenyl]-4-yl)carbamoyl)cyclopent-1-enecarboxylic acid], the IC50 was less than 0.8 µM.

Turning to `Cc1cccc(Sc2ccc(NC(=O)C3=C(C(=O)O)CCC3)cc2)c1` [Compound 42, 2-((4-(m-tolylthio)phenyl)carbamoyl)cyclopent-1-enecarboxylic acid], the IC50 is less than 0.8 µM.

For `O=C(O)C1=C(C(=O)Nc2c(F)cc(-c3ccccc3Cl)cc2F)CCC1` [Compound 65, 2-((2′-chloro-3,5-difluoro-[1,1′-biphenyl]-4-yl)carbamoyl)cyclopent-1-enecarboxylic acid], the concentration for half-maximal inhibition (IC50) is less than 0.8 µM.

As for `COc1ccccc1-c1ccc(NC(=O)C2=C(C(=O)O)CCC2)c([N+](=O)[O-])c1` [Compound 32, 2-((2′-methoxy-3-nitro-[1,1′-biphenyl]-4-yl)carbamoyl)cyclopent-1-enecarboxylic acid], the half-inhibitory concentration (IC50) is less than 0.8 µM.

On to `CCOc1cccc(-c2cc(F)c(NC(=O)C3=C(C(=O)O)CCC3)c(F)c2)c1` [Compound 63, 2-((3′-ethoxy-3,5-difluoro-[1,1′-biphenyl]-4-yl)carbamoyl)cyclopent-1-enecarboxylic acid], for which the half-maximal inhibitory concentration (IC50) is less than 0.8 µM.

On to `O=C(O)C1=C(C(=O)Nc2cc(Br)c(OCc3ccccc3)c(Br)c2)CSC1` [Compound 29, 4-((4-(benzyloxy)-3,5-dibromophenyl)carbamoyl)-2,5-dihydrothiophene-3-carboxylic acid], for which the IC50 was less than 0.8 µM.

With `O=C(O)C1=C(C(=O)Nc2ccc(OCc3ccccc3F)c(Cl)c2)CCC1` [Compound 74, 2-((3-chloro-4-((2-fluorobenzyl)oxy)phenyl)carbamoyl)cyclopent-1-enecarboxylic acid], the IC50 is less than 0.8 µM.

Take `COc1ccccc1-c1ccc(OC(=O)C2=C(C(=O)O)CCC2)c(F)c1` [Compound 76]: the IC50 is less than 0.8 µM.

In general, IC50 refers to the midpoint of a concentration-inhibition curve.
